Assay results as given in patent publication US9133115B2 (ACHILLION PHARMACEUTICALS, INC., priority 2008, dated 2015).

Tested on: HCV replicon
Experiment: HCV replicon replication assay (NPT ELISA) in Huh-7 replicon-containing cells
Type: cell-based
Conditions: Hepatitis C virus, 72 h; HCV replicon in Huh-7 cells, three days incubation; read-out: EC50
How it was run: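 Huh-7 cells carrying a bicistronic HCV replicon (HCV-IRES-neo, EMCV-IRES-driven NS3–NS5B, 3′-NTR) were seeded at 6000-7500 cells/well, grown 24 h to 60-70% confluence, then treated with graded compound concentrations. Replication was read as NPT level by capture ELISA (rabbit anti-NPTII, Eu-N1 secondary); interferon alpha served as positive control.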

SMILES | EC50 [µM]
C=CC1CC1(NC(=O)[C@@H]1C[C@@H](Oc2cc(-c3ccccc3)nc3cc(OC)ccc23)CN1C(=O)[C@@H](CC(=O)N1CCCc2ccccc21)C(C)(C)C)C(=O)NS(=O)(=O)C1CC1 (stereo partly drawn) [Compound 41, (2S,4R)-1-((S)-2-tert-butyl-4-(3,4-dihydroquinolin-1(2H)-yl)-4-oxobutanoyl)-N-(1-(cyclopropyl-sulfonyl-carbamoyl)-2-vinylcyclopropyl)-4-(7-methoxy-2-phenylquinolin-4-yloxy)pyrrolidine-2-carboxamide] | < 1
C=C[C@@H]1C[C@]1(NC(=O)[C@@H]1C[C@@H](Oc2cc(-c3ccccc3)nc3cc(OC)ccc23)CN1C(=O)[C@@H](CC(=O)NC1CCCC1)C(C)(C)C)C(=O)NS(=O)(=O)C1CC1 [Compound 49, (2S,4R)-1-((S)-2-tert-butyl-4-(cyclopentylamino)-4-oxobutanoyl)-N-((1R,2S)-1-(cyclopropyl-sulfonylcarbamoyl)-2-vinylcyclopropyl)-4-(7-methoxy-2-phenylquinolin-4-yloxy)pyrrolidine-2-carboxamide] | < 1
C=C[C@@H]1C[C@]1(NC(=O)[C@@H]1C[C@@H](Oc2cc(-c3ccccc3)nc3cc(OC)ccc23)CN1C(=O)[C@@H](CC(=O)N1CCCCC1)C(C)(C)C)C(=O)NS(=O)(=O)C(C)CC (stereo partly drawn) [Compound 135, (2S,4R)-1-((S)-2-tert-butyl-4-oxo-4-(piperidin-1-yl)butanoyl)-N-((1R,2S)-1-(sec-butylsulfonyl-carbamoyl)-2-vinylcyclopropyl)-4-(7-methoxy-2-phenylquinolin-4-yloxy)pyrrolidine-2-carboxamide] | < 1
C=C[C@@H]1C[C@]1(NC(=O)[C@@H]1C[C@@H](Oc2cc(-c3ccccn3)nc3cc(OC)ccc23)CN1C(=O)[C@@H](CC(=O)N1CCC(F)(F)CC1)C(C)(C)C)C(=O)NS(=O)(=O)C1CC1 [Compound 216, (2S,4R)-1-((S)-2-tert-butyl-4-(4,4-difluoropiperidin-1-yl)-4-oxobutanoyl)-N-((1R)-1-(cyclo-propylsulfonyl-carbamoyl)-2-vinylcyclopropyl)-4-(7-methoxy-2-(pyridin-2-yl)quinolin-4-yloxy)pyrrolidine-2-carboxamide] | < 1
C=C[C@@H]1C[C@]1(NC(=O)[C@@H]1C[C@@H](OC(=O)n2c3ccccc3c3ccccc32)CN1C(=O)[C@@H](CC(=O)N1CCCCC1)C(C)(C)C)C(=O)NS(=O)(=O)C1CC1 [Compound 99, (3R,5S)-1-((S)-2-tert-butyl-4-oxo-4-(piperidin-1-yl)butanoyl)-5-((1R,2S)-1-(cyclo-propylsulfonyl-carbamoyl)-2-vinyl-cyclopropyl-carbamoyl)pyrrolidin-3-yl 9H-carbazole-9-carboxylate] | < 1
C=C[C@@H]1C[C@]1(NC(=O)[C@@H]1C[C@@H](Oc2cc(-c3ccccc3)cc3cc(OC)ccc23)CN1C(=O)[C@@H](CC(=O)N1CCCCC1)C(C)(C)C)C(=O)NS(=O)(=O)C1CC1 [Compound 233, (2S,4R)-1-((S)-2-tert-butyl-4-oxo-4-(piperidin-1-yl)butanoyl)-N-((1R)-1-(cyclopropyl-sulfonylcarbamoyl)-2-vinylcyclopropyl)-4-(6-methoxy-3-phenylnaphthalen-1-yloxy)pyrrolidine-2-carboxamide] | < 1
C=C[C@@H]1C[C@]1(NC(=O)[C@@H]1C[C@@H](Oc2cc(-c3ccccn3)nc3c(Cl)c(OC)ccc23)CN1C(=O)[C@@H](CC(=O)N1CCCC1C(F)(F)F)C(C)(C)C)C(=O)NS(=O)(=O)C1CC1 (stereo partly drawn) [Compound 207, (2S,4R)-1-((2S)-2-tert-butyl-4-oxo-4-(2-(trifluoromethyl)pyr-rolidin-1-yl)butanoyl)-4-(8-chloro-7-methoxy-2-(pyridin-2-yl)quinolin-4-yloxy)-N-((1R)-1-(cyclopropylsulfonyl-carbamoyl)-2-vinylcyclopropyl)pyr-rolidine-2-carboxamide] | < 1
COc1ccc2c(O[C@@H]3C[C@@H](C(=O)N[C@@H](C)C(=O)NS(=O)(=O)C4CC4)N(C(=O)[C@@H](CC(=O)N4CCCCC4)C(C)(C)C)C3)cc(-c3ccccc3)nc2c1 [Compound 114, (2S,4R)-1-((S)-2-tert-butyl-4-oxo-4-(piperidin-1-yl)butanoyl)-N-((S)-1-(cyclopropanesulfon-amido)-1-oxopropan-2-yl)-4-(7-methoxy-2-phenylquinolin-4-yloxy)pyrrolidine-2-carboxamide] | 1 to 10
C=C[C@@H]1C[C@]1(NC(=O)[C@@H]1C[C@@H](Oc2cc(-c3ccccc3)nc3cc(OC)ccc23)CN1C(=O)[C@@H](CC(=O)N1CCCC[C@H]1C(=O)Nc1nccs1)C(C)(C)C)C(=O)NS(=O)(=O)C1CC1 [Compound 211, (2S)-1-((3S)-3-((2S,4R)-2-((1R)-1-(cyclopropyl-sulfonylcarbamoyl)-2-vinylcyclopropyl-carbamoyl)-4-(7-methoxy-2-phenylquinolin-4-yloxy)pyrrolidine-1-carbonyl)-4,4-dimethylpentanoyl)-N-(thiazol-2-yl)piperidine-2-carboxamide] | < 1
C=C[C@@H]1C[C@]1(NC(=O)[C@@H]1C[C@@H](OC(=O)N2c3ccccc3C=Cc3ccccc32)CN1C(=O)[C@@H](CC(=O)N1CCCCC1)C(C)(C)C)C(=O)NS(=O)(=O)C1CC1 [Compound 131, (Z)-((3R,5S)-1-((S)-2-tert-butyl-4-oxo-4-(piperidin-1-yl)butanoyl)-5-((1R,2S)-1-(cyclopropylsulfon-ylcarbamoyl)-2-vinylcyclopropyl-carbamoyl)pyr-rolidin-3-yl)5H-dibenzo[b,f]azepine-5-carboxylate] | 1 to 10
C=C[C@@H]1C[C@]1(NC(=O)[C@@H]1C[C@@H](Oc2cc(-c3ccccc3)nc3c4c(ccc23)CCC4)CN1C(=O)[C@@H](CC(=O)N1CCCCC1)C(C)(C)C)C(=O)NS(=O)(=O)C1CC1 [Compound 235, (2S,4R)-l-((S)-2-tert-butyl-4-oxo-4-(piperidin-l-yl)butanoyl)-N-((2S)-l-(cyclopropyl-sulfonylcarbamoyl)-2-vinylcyclopropyl)-4-(2-phenyl-8,9-dihydro-7H-cyclo-penta[h]quinolin-4-yloxy)pyrrolidine-2-carboxamide] | < 1
C=CC1C[C@]1(NC(=O)[C@@H]1C[C@@H](Oc2cc(-c3ccccc3)nc3cc(OC)ccc23)CN1C(=O)[C@@H](CC(=O)N1CCCCC1)CC(C)C)C(=O)NS(=O)(=O)C1CC1 (stereo partly drawn) [Compound 91, (2S,4R)-N-((1R,2R)-1-(cyclopropyl-sulfonylcarbamoyl)-2-vinylcyclopropyl)-4-(7-methoxy-2-phenylquinolin-4-yloxy)-1-((R)-4-methyl-2-(2-oxo-2-(piperidin-1-yl)ethyl)pentano-yl)pyrrolidine-2-carboxamide] | < 1
C=C[C@@H]1C[C@]1(NC(=O)[C@@H]1C[C@@H](Oc2cc(-c3ccccc3)nc3cc(OC)ccc23)CN1C(=O)[C@@H](CC(=O)N1CC2CCC1C2)C(C)(C)C)C(=O)NS(=O)(=O)C1CC1 (stereo partly drawn) [Compound 79, (2S,4R)-1-((2S)-2-(2-(2-azabi-cyclo[2.2.1]heptan-2-yl)-2-oxoethyl)-3,3-dimethylbutanoyl)-N-((1R,2S)-1-(cyclopropyl-sulfonylcarbamoyl)-2-vinylcyclopropyl)-4-(7-methoxy-2-phenylquinolin-4-yloxy)pyrrolidine-2-carboxamide] | < 1
C=C[C@@H]1C[C@]1(NC(=O)[C@@H]1C[C@@H](OC(=O)N2c3ccccc3Sc3ccccc32)CN1C(=O)[C@@H](CC(=O)N1CCCCC1)C(C)(C)C)C(=O)NS(=O)(=O)C1CC1 [Compound 123, (3R,5S)-1-((S)-2-tert-butyl-4-oxo-4-(piperidin-1-yl)butanoyl)-5-((1R,2S)-1-(cyclopropylsulfonyl-carbamoyl)-2-vinyl-cyclopropylcarbamo-yl)pyrrolidin-3-yl 10H-phenothiazine-10-carboxylate] | 1 to 10
C=C[C@@H]1C[C@]1(NC(=O)[C@@H]1C[C@@H](OC(=O)Nc2cccc(Oc3ccccc3)c2)CN1C(=O)[C@@H](CC(=O)N1CCCCC1)C(C)(C)C)C(=O)NS(=O)(=O)C1CC1 [Compound 95, (3R,5S)-1-((S)-2-tert-butyl-4-oxo-4-(piperidin-1-yl)butanoyl)-5-((1R,2S)-1-(cyclopropylsulfonyl-carbamoyl)-2-vinylcyclopropyl-carbamoyl)pyrrolidin-3-yl 3-phenoxyphenyl-carbamate] | 1 to 10
C=C[C@@H]1C[C@]1(NC(=O)[C@@H]1C[C@@H](Oc2cc(-c3ccccc3)nc3cc(OC)ccc23)CN1C(=O)[C@@H](CC(=O)N1CCC(N(C)C(=O)OC(C)(C)C)C1)C(C)(C)C)C(=O)NS(=O)(=O)C1CC1 (stereo partly drawn) [Compound 161, tert-butyl 1-((S)-3-((2S,4R)-2-((1R,2S)-1-(cyclopropyl-sulfonylcarbamoyl)-2-vinylcyclopropyl-carbamoyl)-4-(7-methoxy-2-phenylquinolin-4-yloxy)pyrrolidine-1-carbonyl)-4,4-dimethyl-pentanoyl)pyrrolidin-3-yl(methyl)carbamate] | < 1
COc1ccc2c(O[C@@H]3C[C@@H](C(=O)N[C@@H](C(=O)NS(=O)(=O)C4CC4)C(C)C)N(C(=O)[C@@H](CC(=O)N4CCCCC4)C(C)(C)C)C3)cc(-c3ccccc3)nc2c1 [Compound 118, (2S,4R)-1-((S)-2-tert-butyl-4-oxo-4-(piperidin-1-yl)butanoyl)-N-((R)-1-(cyclopropanesulfon-amido)-3-methyl-1-oxobutan-2-yl)-4-(7-methoxy-2-phenylquinolin-4-yloxy)pyrrolidine-2-carboxamide] | 1 to 10
C=C[C@@H]1C[C@]1(NC(=O)[C@@H]1C[C@@H](Oc2cc(-c3ccccn3)nc3cc(OC)ccc23)CN1C(=O)[C@@H](CC(=O)N1CC2CCC1C2)C(C)(C)C)C(=O)NS(=O)(=O)C1CC1 (stereo partly drawn) [Compound 220, (2S,4R)-1-((2S)-2-(2-(2-azabi-cyclo[2.2.1]heptan-2-yl)-2-oxoethyl)-3,3-dimethylbutanoyl)-N-((1R)-1-(cyclo-propylsulfonyl-carbamoyl)-2-vinylcyclopropyl)-4-(7-methoxy-2-(pyridin-2-yl)quinolin-4-yloxy)pyrrolidine-2-carboxamide] | < 1
